Test [1] concerns the target T1, phosphor-EGFR in H1975(L585R/T790M) mutant EGFR expressing cells (Homo sapiens, UniProt P00533, L858R/T790M).
T1 construct: host or cells: NCI-H1975
Description: H1975 pEGFR MSD cellular assay. Type of test: cell-based. To be noted: NCI-H1975 cells, serum starved, 1 hour compound incubation, pEGFR Tyr1068 MSD. Here is the method: H1975 pEGFR MSD Cellular Assays Background:
These assays are intended for determining cellular. […] (Meso Scale Discovery Catalog# N31CB-1).
All cell culture reagents were purchased from Invitrogen/Gibco. Cells are cultured at 37° C. at 5% CO2 and split as recommended by ATCC.
Cell Plating and Serum Starvation:
After six hours, culture medium is aspirated and replaced with serum-free culture medium. Cells are then incubated with the serum-free medium overnight at 37° C. and 5% CO2.
The following day, test compounds are serially diluted in dimethyl sulfoxide (DMSO) and added to cells in serum free medium (final DMSO concentration 0.5%). Assay plates are then incubated for 1 hour at 37° C. and 5% CO2. Following 1 hour of compound incubation cells are then lysed and processed as per the MSD pEGFR assay kit protocol. Cell lysates are added to assay plates pre-coated with antibodies against phosphorylated EGFR. Phosphorylated EGFR in samples are allowed to bind to the capture antibodies overnight at 4° C. The detection antibody (anti-total EGFR, labeled with an electrochemiluminescent SULFO-TAG) is added to the bound lysate and incubated for 1 hour at room temperature. The MSD Read Buffer is added such that when a voltage is applied to the plate electrodes, the labels bound to the electrode surface emit light. The MSD Sector Instrument measures the intensity of the light, and quantitatively measures the amount of phosphorylated-EGFR in the sample. Percent inhibition of EGFR phosphorylation by varying concentrations of test compounds is calculated relative to untreated controls. EC50 values are calculated using the 4 parameter logistic nonlinear regression dose-response model.

The next test deals with T2, EGFR del746-750 T790M (Homo sapiens, UniProt P00533, DEL746-750/T790M).
T2 construct: purchased Carna Biosciences 08-528
As to the kind of experiment: EGFR del746-750 T790M biochemical assay (Caliper mobility shift). The following applies: 5 μM ATP, 30 min, room temperature; apparent Ki (Morrison) converted by Cheng-Prusoff, Km of ATP 2.1 μM; read-out: EGFR(T790M/d746-750) Ki.

T2 sequence (P00533 with tags, fused parts or gaps DEL746-750/T790M limits assumed): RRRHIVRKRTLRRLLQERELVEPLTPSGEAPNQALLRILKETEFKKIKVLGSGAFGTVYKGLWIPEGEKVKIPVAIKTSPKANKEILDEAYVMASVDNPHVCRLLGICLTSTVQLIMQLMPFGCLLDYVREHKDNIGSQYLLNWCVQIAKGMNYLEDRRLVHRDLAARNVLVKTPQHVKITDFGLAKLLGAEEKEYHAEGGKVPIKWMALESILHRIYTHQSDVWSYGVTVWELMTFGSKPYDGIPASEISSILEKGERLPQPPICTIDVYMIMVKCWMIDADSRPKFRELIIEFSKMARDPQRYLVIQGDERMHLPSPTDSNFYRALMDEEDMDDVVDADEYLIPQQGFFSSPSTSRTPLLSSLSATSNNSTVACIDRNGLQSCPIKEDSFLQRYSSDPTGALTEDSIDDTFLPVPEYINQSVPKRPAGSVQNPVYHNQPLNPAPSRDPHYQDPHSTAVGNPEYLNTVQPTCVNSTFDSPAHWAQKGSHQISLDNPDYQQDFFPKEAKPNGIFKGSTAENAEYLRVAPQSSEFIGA
T1 sequence (P00533 25-1210 T790M/L858R): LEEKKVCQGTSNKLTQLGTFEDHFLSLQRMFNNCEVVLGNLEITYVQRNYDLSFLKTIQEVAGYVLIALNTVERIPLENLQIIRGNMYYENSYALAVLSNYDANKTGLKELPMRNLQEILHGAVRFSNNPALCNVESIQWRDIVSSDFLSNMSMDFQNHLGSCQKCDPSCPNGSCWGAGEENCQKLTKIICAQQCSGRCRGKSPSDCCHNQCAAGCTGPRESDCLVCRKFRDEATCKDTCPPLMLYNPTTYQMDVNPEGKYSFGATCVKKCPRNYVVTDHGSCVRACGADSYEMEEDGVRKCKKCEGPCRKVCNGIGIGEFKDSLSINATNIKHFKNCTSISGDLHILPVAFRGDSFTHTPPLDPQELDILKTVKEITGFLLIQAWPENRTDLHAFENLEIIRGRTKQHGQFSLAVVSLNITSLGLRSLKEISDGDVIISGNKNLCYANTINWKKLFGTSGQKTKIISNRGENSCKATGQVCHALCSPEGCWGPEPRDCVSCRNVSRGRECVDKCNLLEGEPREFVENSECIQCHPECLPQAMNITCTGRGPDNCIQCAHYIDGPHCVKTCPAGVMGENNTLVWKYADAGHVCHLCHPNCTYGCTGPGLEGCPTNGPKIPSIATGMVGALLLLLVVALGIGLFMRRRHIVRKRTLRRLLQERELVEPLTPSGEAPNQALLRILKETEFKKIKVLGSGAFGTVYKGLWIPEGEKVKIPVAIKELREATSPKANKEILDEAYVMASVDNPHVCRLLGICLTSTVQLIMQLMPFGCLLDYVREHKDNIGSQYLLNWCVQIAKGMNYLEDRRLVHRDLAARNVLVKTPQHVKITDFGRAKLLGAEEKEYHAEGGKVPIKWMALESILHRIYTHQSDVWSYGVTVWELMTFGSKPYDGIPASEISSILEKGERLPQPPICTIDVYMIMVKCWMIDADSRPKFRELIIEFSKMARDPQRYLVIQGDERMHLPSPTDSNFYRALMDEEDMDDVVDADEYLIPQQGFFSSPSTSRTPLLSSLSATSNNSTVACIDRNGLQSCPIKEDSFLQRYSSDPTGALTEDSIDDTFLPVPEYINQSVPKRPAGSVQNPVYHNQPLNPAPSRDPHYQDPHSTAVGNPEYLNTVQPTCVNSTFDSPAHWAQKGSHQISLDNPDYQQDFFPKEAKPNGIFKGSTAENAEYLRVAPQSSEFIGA

One may read the EC50 as the concentration that produces a half-maximal response. A high value points to lower potency in that assay. The compound `COC1CCN(c2nccc(Nc3cc4c(cn3)nc(C)n4C(C)C)n2)CC1` [Example 5, (1-Isopropyl-2-methyl-1H-imidazo[4,5-c]pyridin-6-yl)-[2-(4-methoxypiperidin-1-yl)pyrimidin-4-yl]amine] displayed an EC50 in test [1] of 871 nM. The Ki at EGFR del746-750 T790M was determined as 47.7 nM.

`O=S(=O)(C1CC1)n1cc(-c2nccc(Nc3cc4c(cn3)nc(CO)n4-c3ccccc3)n2)cn1` [Example 475, (6-(2-(1-(cyclopropylsulfonyl)-1H-pyrazol-4-yl)pyrimidin-4-ylamino)-l-phenyl-1H-imidazo[4,5-c]pyridin-2-yl)methanol] showed an EC50 in test [1] of 1810 nM. In the case of `CCC(C)n1cc(C(=O)NC2CCOC2)c2cnc(Nc3ccnc(N4CCC(O)C(C)(C)C4)n3)cc21` (mixture of isomers) [Example 373, 1-(sec-butyl)-6-((2-(4-hydroxy-3,3-dimethylpiperidin-1-yl)pyrimidin-4-yl)amino)-N-(tetrahydrofuran-3-yl)-1H-pyrrolo[3,2-c]pyridine-3-carboxamide], the EC50 in test [1] was found to be 67.3 nM. Further, the Ki on EGFR del746-750 T790M was found to be 4.44 nM. The compound `CC(C)n1cc(C(N)=O)c2cnc(Nc3ccnc(-c4cnn(S(=O)(=O)C5CC5)c4)n3)cc21` [Example 51, 6-((2-(1-(Cyclopropylsulfonyl)-1H-pyrazol-4-yl)pyrimidin-4-yl)amino)-1-isopropyl-1H-pyrrolo[3,2-c]pyridine-3-carboxamide] came in with an EC50 in test [1] of 181 nM. Same read-out and setting: to `C[C@H](n1c([C@@H](C)O)nc2cnc(Nc3ccnc(-c4cnn(S(=O)(=O)C5CC5)c4)n3)cc21)C(F)(F)F` [Example 572, (R)-1-[6-[2-(1-Cyclopropanesulfonyl-1H-pyrazol-4-yl)-pyrimidin-4-ylamino]-1-((S)-2,2,2-trifluoro-1-methylethyl)-1H-imidazo[4,5-c]pyridin-2-yl]-ethanol] belongs 167 nM. The compound `COC1CCN(c2nccc(Nc3cc4c(cn3)nc(COCCN(C)C)n4C(C)C)n2)CC1` [Example 8, [2-(2-Dimethylaminoethoxymethyl)-1-isopropyl-1H-imidazo[4,5-c]pyridin-6-yl]-[2-(4-methoxypiperidin-1-yl)pyrimidin-4-yl]amine] had an EC50 in test [1] of 585 nM. Further, the Ki on EGFR del746-750 T790M turned out to be 106 nM. The compound `CC(C)n1c(C2CCCO2)nc2cnc(Nc3ccnc(-c4cnn(S(=O)(=O)C5CC5)c4)n3)cc21` (racemic) [Example 565, (±)-[2-(1-Cyclopropanesulfonyl-1H-pyrazol-4-yl)-pyrimidin-4-yl]-[1-isopropyl-2-(tetrahydro-furan-2-yl)-1H-imidazo[4,5-c]pyridin-6-yl]amine] gave an EC50 in test [1] of 1160 nM.

`CNc1ncc(-c2nccc(Nc3cc4c(cn3)nc(C)n4C(C)C)n2)s1` [Example 312, (1-Isopropyl-2-methyl-1H-imidazo[4,5-c]pyridin-6-yl)-[2-(2-methylaminothiazol-5-yl)pyrimidin-4-yl]amine]: it took 112 nM to reach a half-maximal effect in test [1] (EC50). For the same compound, the Ki at EGFR del746-750 T790M was 0.84 nM. In test [1], `CC1(C)COCc2nc3cnc(Nc4ccnc(-c5cnn(S(=O)(=O)C6CC6)c5)n4)cc3n21` [Example 538, [2-(1-Cyclopropanesulfonyl-1H-pyrazol-4-yl)-pyrimidin-4-yl]-(4,4-dimethyl-3,4-dihydro-1H-2-oxa-4a,7,9-triazafluoren-6-yl)amine] showed an EC50 of 838 nM. In test [1], `C[C@H](n1c([C@@H](C)O)nc2cnc(Nc3ccnc(N4CCC(O)C(F)C4)n3)cc21)C(F)(F)F` (mixture of isomers) [Example 296, cis-3-Fluoro-1-{4-[2-((R)-1-hydroxyethyl)-1-((S)-2,2,2-trifluoro-1-methylethyl)-1H-imidazo[4,5-c]pyridin-6-ylamino]pyrimidin-2-yl}piperidin-4-ol] yielded an EC50 of 189 nM. In addition, on EGFR del746-750 T790M, the Ki came to 5.04 nM. For `Cc1nc2cnc(Nc3ccnc(-c4cnn(S(=O)(=O)C5CC5)c4)n3)cc2n1C(C)C` [Example 52, N-(2-(1-(Cyclopropylsulfonyl)-1H-pyrazol-4-yl)pyrimidin-4-yl)-1-isopropyl-2-methyl-1H-imidazo[4,5-c]pyridin-6-amine], in that order: 254 nM and 1.8 nM. Consider `COCC(C)(C)n1c(C)nc2cnc(Nc3ccnc(N4CCC(OC)CC4)n3)cc21` [Example 164, [1-(2-Methoxy-1,1-dimethylethyl)-2-methyl-1H-imidazo[4,5-c]pyridin-6-yl]-[2-(4-methoxypiperidin-1-yl)pyrimidin-4-yl]amine], for which the EC50 in test [1] came to 4710 nM.

In test [1], `COC1CCN(c2nccc(Nc3cc4c(cn3)c(C#N)cn4C(C)C)n2)CC1` [Example 58, 1-Isopropyl-6-((2-(4-methoxypiperidin-1-yl)pyrimidin-4-yl)amino)-1H-pyrrolo[3,2-c]pyridine-3-carbonitrile] returned an EC50 of 1410 nM. Moreover, at EGFR del746-750 T790M, the Ki turned out to be 60.9 nM. In turn, `CCNC(=O)c1cn(C(C)CC)c2cc(Nc3ccnc(N4CC[C@@H](O)[C@@H](F)C4)n3)ncc12` (single isomer, unassigned) [Example 369] had an EC50 in test [1] of 239 nM. The Ki on EGFR del746-750 T790M came out at 5.47 nM. `COC1CCN(c2nccc(Nc3cc4c(cn3)nc(C(F)F)n4C(C)C)n2)CC1` [Example 110, 2-(difluoromethyl)-1-isopropyl-N-(2-(4-methoxypiperidin-1-yl)pyrimidin-4-yl)-1H-imidazo[4,5-c]pyridin-6-amine] registered a concentration giving a half-maximal response (EC50) in test [1] of 623 nM. Further, the Ki on EGFR del746-750 T790M was 144 nM. In turn, `CC(=O)Nc1cn(C(C)C)c2cc(Nc3ccnc(-c4cnn(S(=O)(=O)C5CC5)c4)n3)ncc12` [Example 327, N-(6-((2-(1-(Cyclopropylsulfonyl)-1H-pyrazol-4-yl)pyrimidin-4-yl)amino)-1-isopropyl-1H-pyrrolo[3,2-c]pyridin-3-yl)acetamide] yielded an EC50 in test [1] of 105 nM. Further, the Ki on EGFR del746-750 T790M came out at 0.53 nM. For `CC1(C)CCOc2nc3cnc(Nc4ccnc(-c5cnn(S(=O)(=O)C6CC6)c5)n4)cc3n21` [Example 534, [2-(1-Cyclopropanesulfonyl-1H-pyrazol-4-yl)-pyrimidin-4-yl]-(4,4-dimethyl-3,4-dihydro-2H-1-oxa-4a,7,9-triazafluoren-6-yl)amine], in that order: 1370 nM and 5.61 nM. Turning to `COc1ccc(-c2nccc(Nc3cc4c(cn3)ncn4C(C)C)n2)cn1` [Example 54, 1-Isopropyl-N-(2-(6-methoxypyridin-3-yl)pyrimidin-4-yl)-1H-imidazo[4,5-c]pyridin-6-amine], a half-maximal response in test [1] (EC50) required 3570 nM.

Take `CC(C)n1cc(C2CNC(=O)C2)c2cnc(Nc3ccnc(-c4cnn(S(=O)(=O)C5CC5)c4)n3)cc21` (stereo not drawn) [Example 256, 4-(6-(2-(1-(Cyclopropylsulfonyl)-1H-pyrazol-4-yl)pyrimidin-4-ylamino)-1-isopropyl-1H-pyrrolo[3,2-c]pyridin-3-yl)pyrrolidin-2-one]: in test [1], the response was half-maximal at 1050 nM (EC50). In the case of `COC1(CN)CCN(c2nccc(Nc3cc4c(cn3)nc(C)n4C(C)C)n2)CC1` [Example 271, [2-(4-Aminomethyl-4-methoxypiperidin-1-yl)pyrimidin-4-yl](1-isopropyl-2-methyl-1H-imidazo[4,5-c]pyridin-6-yl)amine], in test [1], a half-maximal effect (EC50) was put at 5750 nM. As to `CC(C)n1cc(C(=O)NC2COC2)c2cnc(Nc3ccnc(-c4cnn(S(=O)(=O)N(C)C)c4)n3)cc21` [Example 378, 6-((2-(1-(N,N-dimethylsulfamoyl)-1H-pyrazol-4-yl)pyrimidin-4-yl)amino)-1-isopropyl-N-(oxetan-3-yl)-1H-pyrrolo[3,2-c]pyridine-3-carboxamide], a half-maximal response in test [1] (EC50) required 177 nM. Same read-out and setting: to `CC(C)n1c(OCCO)nc2cnc(Nc3ccnc(-c4cnn(S(=O)(=O)C5CC5)c4)n3)cc21` [Example 282, 2-{6-[2-(1-Cyclopropanesulfonyl-1H-pyrazol-4-yl)pyrimidin-4-ylamino]-1-isopropyl-1H-imidazo[4,5-c]pyridin-2-yloxy}ethanol] belongs 414 nM; to `COC1(CO)CCN(c2nccc(Nc3cc4c(cn3)c(-c3cnn(C(C)(C)C(N)=O)c3)cn4C(C)C)n2)CC1` [Example 445, 2-(4-(6-(2-(4-(hydroxymethyl)-4-methoxypiperidin-1-yl)pyrimidin-4-ylamino)-1-isopropyl-1H-pyrrolo[3,2-c]pyridin-3-yl)-1H-pyrazol-1-yl)-2-methylpropanamide], 831 nM; to `Cc1nc2cnc(Nc3ccnc(-c4cnn(CC5CC5)c4)n3)cc2n1C(C)C` [Example 395, N-(2-(1-(cyclopropylmethyl)-1H-pyrazol-4-yl)pyrimidin-4-yl)-1-isopropyl-2-methyl-1H-imidazo[4,5-c]pyridin-6-amine], 1340 nM. For `Cc1nc2cnc(Nc3ccnc(N4CC[C@H](C#N)C4)n3)cc2n1C(C)C` [Example 679], the Ki at EGFR del746-750 T790M was found to be 168 nM.

Values taken from patent US9890152B2 (Genentech, Inc., priority 2012, dated 2018).
